Measurements from ChEMBL document CHEMBL1201862, “PubChem BioAssay data set” (2004).
The source made the active and inactive calls.

How the values were obtained:
Aminopeptidase N = molecular target: T1, Aminopeptidase N (Plasmodium falciparum FcB1/Columbia, UniProt O96935); experiment: P. falciparum M1AAP inhibitors, biochemical, fluorogenic H-Leu-NHMec substrate, 1536-well (AID 1445); set-up: species or system Plasmodium falciparum 3D7, 3D7
T1 sequence (O96935 whole entry): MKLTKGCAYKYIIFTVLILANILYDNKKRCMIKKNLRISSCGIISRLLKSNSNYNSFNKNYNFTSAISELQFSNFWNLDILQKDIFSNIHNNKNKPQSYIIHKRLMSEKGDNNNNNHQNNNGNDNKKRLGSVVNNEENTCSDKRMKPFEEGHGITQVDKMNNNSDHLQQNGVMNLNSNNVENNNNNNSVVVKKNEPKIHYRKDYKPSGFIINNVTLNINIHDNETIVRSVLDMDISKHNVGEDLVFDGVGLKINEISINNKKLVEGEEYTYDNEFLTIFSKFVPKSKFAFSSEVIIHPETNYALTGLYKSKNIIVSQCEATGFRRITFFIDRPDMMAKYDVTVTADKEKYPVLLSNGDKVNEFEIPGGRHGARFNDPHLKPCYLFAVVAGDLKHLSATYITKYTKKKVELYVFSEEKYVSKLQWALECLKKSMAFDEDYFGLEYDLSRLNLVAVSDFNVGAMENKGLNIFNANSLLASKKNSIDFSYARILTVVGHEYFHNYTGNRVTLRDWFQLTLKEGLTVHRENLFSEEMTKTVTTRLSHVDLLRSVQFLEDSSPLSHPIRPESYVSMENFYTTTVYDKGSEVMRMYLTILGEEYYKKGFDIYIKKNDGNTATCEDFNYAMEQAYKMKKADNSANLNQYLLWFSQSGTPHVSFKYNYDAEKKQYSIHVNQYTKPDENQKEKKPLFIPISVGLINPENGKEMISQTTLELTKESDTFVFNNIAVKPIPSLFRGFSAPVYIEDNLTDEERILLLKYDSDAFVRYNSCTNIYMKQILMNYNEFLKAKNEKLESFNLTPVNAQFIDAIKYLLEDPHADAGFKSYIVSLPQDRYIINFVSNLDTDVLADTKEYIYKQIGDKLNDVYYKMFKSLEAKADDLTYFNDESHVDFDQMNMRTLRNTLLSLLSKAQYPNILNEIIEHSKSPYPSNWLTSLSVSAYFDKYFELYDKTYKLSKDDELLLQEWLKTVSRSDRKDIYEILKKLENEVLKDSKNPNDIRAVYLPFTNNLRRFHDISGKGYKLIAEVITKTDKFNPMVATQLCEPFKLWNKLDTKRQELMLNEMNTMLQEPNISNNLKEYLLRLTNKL

[1] = molecular target: T2, RNA-binding protein pos-1 (Caenorhabditis elegans, UniProt G5EF15); experiment: inhibitors of POS-1/mex-3 RNA binding, dose response, biochemical, fluorescence polarization (AID 1964);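 also: purified POS-1 fused to maltose binding protein made in E. coli; potency of compounds blocking POS-1 binding to fluorescent RNA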
T2 sequence (G5EF15 whole entry): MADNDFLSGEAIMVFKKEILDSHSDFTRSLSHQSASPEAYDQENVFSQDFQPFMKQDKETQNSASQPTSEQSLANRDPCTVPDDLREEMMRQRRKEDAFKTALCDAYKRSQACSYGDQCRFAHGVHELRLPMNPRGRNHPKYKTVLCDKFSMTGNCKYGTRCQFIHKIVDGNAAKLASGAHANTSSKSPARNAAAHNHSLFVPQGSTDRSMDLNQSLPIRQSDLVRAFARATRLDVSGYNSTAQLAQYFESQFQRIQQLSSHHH

[2] = molecular target: T3, Zinc finger protein mex-5 (Caenorhabditis elegans, UniProt Q9XUB2); experiment: MEX-5/TCR-2 RNA interaction inhibitors, dose response, biochemical, C. elegans, fluorescence polarization (AID 1960)
T3 sequence (Q9XUB2 whole entry): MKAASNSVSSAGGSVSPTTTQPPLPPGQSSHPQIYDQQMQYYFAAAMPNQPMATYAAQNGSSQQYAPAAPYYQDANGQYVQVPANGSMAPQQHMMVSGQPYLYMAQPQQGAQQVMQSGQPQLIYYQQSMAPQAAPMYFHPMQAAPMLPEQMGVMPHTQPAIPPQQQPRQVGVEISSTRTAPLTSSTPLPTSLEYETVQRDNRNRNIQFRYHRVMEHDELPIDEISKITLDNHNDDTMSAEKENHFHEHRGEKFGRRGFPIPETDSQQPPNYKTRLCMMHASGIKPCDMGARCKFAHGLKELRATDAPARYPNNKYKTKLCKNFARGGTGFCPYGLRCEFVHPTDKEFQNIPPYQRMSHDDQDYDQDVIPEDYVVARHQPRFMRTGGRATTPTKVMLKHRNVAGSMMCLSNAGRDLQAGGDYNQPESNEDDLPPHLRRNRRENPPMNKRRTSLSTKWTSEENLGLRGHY

[3] = molecular target: FAD-linked sulfhydryl oxidase ALR (Homo sapiens, UniProt P55789); experiment: inhibitors of human ALR sulfhydryl oxidase, dose response, biochemical, H2O2 detection, luminescence, cherry-pick (AID 493248)
Chain of FAD-linked sulfhydryl oxidase ALR (P55789 whole entry): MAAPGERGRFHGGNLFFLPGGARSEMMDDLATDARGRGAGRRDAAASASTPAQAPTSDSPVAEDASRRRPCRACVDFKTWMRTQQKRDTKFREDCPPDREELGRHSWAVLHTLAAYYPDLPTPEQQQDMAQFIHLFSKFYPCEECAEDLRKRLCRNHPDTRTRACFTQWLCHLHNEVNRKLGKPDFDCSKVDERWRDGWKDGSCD

[4] = molecular target: Dual specificity tyrosine-phosphorylation-regulated kinase 1A (Rattus norvegicus, UniProt Q63470); assay type: biochemical, Homo sapiens
Caspase-6 = molecular target: T4, Caspase-6 (Homo sapiens, UniProt P55212); experiment: human caspase-6 inhibitors, dose response, biochemical, VEID-R110 fluorescence, cherry-pick (AID 720632)
T4 sequence (P55212 whole entry): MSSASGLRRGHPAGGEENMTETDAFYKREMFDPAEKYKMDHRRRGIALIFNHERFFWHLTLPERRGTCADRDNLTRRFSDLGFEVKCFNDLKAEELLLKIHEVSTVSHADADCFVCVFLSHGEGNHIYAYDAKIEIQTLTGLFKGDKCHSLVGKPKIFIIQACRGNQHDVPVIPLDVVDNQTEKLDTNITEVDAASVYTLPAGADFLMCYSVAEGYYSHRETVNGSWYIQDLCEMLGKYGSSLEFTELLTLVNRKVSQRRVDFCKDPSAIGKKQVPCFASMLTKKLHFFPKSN

[5] = molecular target: T5, RNA-editing ligase 1, mitochondrial (Trypanosoma brucei brucei, UniProt P86926); experiment: TbREL1 ligase inhibitors, dose response, biochemical, fluorescence, Trypanosoma brucei (AID 1117295); assay type: functional
T5 sequence (P86926 whole entry): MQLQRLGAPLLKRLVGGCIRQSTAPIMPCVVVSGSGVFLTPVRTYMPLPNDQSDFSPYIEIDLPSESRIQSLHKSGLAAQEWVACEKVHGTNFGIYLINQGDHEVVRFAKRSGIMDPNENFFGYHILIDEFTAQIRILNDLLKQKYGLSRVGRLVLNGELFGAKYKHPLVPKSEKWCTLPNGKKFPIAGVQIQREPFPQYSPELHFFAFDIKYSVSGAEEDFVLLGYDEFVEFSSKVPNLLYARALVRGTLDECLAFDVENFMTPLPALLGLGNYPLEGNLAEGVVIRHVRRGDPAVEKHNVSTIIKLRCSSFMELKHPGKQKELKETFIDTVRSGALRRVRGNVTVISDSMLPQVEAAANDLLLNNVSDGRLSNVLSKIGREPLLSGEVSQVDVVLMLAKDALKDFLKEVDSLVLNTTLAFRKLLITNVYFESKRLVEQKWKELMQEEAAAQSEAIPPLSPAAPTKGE

[6] = molecular target: T6, Endoribonuclease toxin MazF (Escherichia coli K-12, UniProt P0AE70); experiment: MazF toxin RNase activators, dose response, biochemical, fluorescence, single-stranded RNA substrate, uHTS hits (AID 588481); assay type: functional
T6 sequence (P0AE70 whole entry): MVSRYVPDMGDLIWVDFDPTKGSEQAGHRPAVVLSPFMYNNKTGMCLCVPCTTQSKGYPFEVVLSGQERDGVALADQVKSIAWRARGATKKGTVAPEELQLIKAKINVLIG

[7] = molecular target: T6, Endoribonuclease toxin MazF; experiment: fluorescent RNA oligo signal without MazF, dose response, counter-screen for MazEF activator project, biochemical, fluorescence, single-stranded RNase substrate (AID 588502); assay type: functional
[8] = molecular target: Arf-GAP with SH3 domain, ANK repeat and PH domain-containing protein 1 (Homo sapiens, UniProt Q9ULH1); assay type: functional;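 also: biochemical fluorescence polarization dose–response screen measuring inhibition of ASAP1; ASAP1 GAP domain stimulating GTP hydrolysis by truncated human ARF1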
Chain of Arf-GAP with SH3 domain, ANK repeat and PH domain-containing protein 1 (Q9ULH1 whole entry, the tested form may be a part): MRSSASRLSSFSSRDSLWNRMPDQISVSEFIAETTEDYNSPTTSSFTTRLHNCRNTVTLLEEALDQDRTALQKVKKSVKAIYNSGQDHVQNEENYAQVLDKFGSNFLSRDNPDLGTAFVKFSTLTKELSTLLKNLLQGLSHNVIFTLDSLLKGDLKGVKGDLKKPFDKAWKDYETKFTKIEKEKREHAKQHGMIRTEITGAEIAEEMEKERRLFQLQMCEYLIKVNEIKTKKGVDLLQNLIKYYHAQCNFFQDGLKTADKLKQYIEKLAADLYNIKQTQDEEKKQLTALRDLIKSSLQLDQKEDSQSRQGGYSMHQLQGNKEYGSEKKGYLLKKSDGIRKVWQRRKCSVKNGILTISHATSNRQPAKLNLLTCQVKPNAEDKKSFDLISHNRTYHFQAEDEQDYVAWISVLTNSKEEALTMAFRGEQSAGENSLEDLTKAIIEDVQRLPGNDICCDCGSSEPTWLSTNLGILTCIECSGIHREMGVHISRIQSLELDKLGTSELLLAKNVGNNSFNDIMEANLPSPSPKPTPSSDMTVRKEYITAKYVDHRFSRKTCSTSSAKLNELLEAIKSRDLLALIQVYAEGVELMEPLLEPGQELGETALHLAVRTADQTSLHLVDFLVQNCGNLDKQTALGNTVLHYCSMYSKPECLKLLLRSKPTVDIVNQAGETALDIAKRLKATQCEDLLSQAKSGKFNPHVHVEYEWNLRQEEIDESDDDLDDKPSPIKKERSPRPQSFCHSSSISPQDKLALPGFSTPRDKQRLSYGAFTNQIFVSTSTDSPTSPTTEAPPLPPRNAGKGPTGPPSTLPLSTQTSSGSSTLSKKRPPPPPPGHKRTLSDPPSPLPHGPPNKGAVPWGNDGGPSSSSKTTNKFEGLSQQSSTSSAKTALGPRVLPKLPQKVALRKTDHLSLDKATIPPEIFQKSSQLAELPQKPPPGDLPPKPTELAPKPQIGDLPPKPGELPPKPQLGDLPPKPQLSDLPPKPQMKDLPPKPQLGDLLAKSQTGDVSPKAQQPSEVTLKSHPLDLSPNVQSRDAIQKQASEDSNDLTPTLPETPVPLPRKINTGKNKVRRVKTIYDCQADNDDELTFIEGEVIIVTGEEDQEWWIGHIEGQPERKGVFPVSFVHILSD

Cytochrome P450 1A2 = molecular target: T7, Cytochrome P450 1A2 (Homo sapiens, UniProt P05177);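 also: PubChem cytochrome P450 panel assay, CYP1A2 panel member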
T7 sequence (P05177 whole entry): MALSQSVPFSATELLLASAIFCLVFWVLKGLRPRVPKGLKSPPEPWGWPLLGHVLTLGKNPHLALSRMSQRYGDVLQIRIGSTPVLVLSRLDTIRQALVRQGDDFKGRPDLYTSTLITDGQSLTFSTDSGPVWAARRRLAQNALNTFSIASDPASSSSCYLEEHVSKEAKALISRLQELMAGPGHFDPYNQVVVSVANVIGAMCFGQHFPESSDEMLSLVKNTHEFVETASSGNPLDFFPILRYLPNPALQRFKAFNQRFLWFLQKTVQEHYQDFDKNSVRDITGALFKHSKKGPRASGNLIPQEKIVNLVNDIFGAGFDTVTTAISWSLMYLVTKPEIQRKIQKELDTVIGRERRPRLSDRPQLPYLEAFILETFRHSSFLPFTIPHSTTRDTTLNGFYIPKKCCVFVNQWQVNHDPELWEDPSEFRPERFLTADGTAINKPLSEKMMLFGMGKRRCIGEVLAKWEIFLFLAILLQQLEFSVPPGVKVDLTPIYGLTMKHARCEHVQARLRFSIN

Beta-galactosidase = Beta-galactosidase (Escherichia coli, UniProt Q8VNN2); experiment: PubChem AID 485352; assay type: functional
Chain of Beta-galactosidase (Q8VNN2 whole entry): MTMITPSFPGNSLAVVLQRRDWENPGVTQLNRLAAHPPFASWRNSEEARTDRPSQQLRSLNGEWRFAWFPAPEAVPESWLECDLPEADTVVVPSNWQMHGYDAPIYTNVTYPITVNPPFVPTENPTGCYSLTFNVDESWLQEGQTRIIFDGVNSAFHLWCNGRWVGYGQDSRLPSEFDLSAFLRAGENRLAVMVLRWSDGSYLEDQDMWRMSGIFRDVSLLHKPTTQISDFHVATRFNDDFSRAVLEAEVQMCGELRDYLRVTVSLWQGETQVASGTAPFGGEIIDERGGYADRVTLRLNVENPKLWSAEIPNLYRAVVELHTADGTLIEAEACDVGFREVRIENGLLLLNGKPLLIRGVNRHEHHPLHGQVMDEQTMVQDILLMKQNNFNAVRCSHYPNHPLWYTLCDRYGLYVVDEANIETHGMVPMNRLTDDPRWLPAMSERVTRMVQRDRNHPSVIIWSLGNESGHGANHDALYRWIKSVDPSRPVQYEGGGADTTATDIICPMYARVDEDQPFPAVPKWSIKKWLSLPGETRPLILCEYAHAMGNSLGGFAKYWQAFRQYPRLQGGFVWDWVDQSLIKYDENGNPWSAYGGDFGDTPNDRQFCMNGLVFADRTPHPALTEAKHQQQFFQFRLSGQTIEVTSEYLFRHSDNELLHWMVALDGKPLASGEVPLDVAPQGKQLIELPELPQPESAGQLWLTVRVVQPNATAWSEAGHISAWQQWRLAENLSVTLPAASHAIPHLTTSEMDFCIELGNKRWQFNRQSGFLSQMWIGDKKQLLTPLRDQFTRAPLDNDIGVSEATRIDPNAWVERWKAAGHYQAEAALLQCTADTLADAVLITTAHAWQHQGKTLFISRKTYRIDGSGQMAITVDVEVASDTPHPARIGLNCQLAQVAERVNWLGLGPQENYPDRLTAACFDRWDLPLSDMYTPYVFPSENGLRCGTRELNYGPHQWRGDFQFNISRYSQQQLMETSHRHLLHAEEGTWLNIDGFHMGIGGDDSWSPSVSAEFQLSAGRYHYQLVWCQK

[9] = molecular target: T8, Type-1 angiotensin II receptor (Homo sapiens, UniProt P30556); experiment: AT1 receptor antagonists, dose response, selectivity assay for APJ receptor antagonist project, cell-based, uHTS hits (AID 463214); assay type: functional;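 also: antagonist potency against angiotensin II stimulated AT1 response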
T8 sequence (P30556 whole entry): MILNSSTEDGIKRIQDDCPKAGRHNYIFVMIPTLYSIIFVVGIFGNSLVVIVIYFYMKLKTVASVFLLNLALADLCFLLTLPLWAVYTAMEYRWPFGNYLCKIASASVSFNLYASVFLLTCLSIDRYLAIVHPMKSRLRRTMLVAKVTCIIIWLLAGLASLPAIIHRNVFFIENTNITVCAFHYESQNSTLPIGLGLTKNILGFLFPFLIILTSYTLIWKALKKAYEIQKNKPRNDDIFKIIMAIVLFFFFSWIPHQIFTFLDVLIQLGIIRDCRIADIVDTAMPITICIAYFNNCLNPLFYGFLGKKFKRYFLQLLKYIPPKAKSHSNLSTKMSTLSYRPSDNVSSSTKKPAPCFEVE

`COc1c(O)cc2oc(-c3ccc(O)c(O)c3)cc(=O)c2c1O` [EUPAFOLIN] was tested, and the IC50 (Aminopeptidase N) was 15.6 µM (active), the EC50 [1] was 93.1 µM (active) and the EC50 [2] was 36 µM (active). For the same molecule, the AC50 [3] was 230 nM (active), the AC50 [4] was 12.7 µM (active) and the AC50 (Caspase-6) was 29.3 µM (active). For the same molecule, the IC50 [5] was > 96.6 µM (inactive).
For `O=[N+]([O-])c1ccc(C=CC=Cc2ccccc2)cc1`, the EC50 [6] was > 99 µM (inactive) and the EC50 [7] was > 99 µM (inactive).
`Cc1ccc(NC(=O)c2ccc(NCC3CCCO3)c([N+](=O)[O-])c2)cc1Cl` (stereo unspecified) was tested, and the EC50 [6] was > 99 µM (inactive), the EC50 [7] was > 99 µM (inactive) and the IC50 [8] was 5.2 µM (active). For the same molecule, the AC50 (Cytochrome P450 1A2) was 14.1 µM (inconclusive).
In the case of `CCOC(=O)C1=C2NC(=O)c3ccccc3N2C(=O)C1`, the EC50 [1] is reported as 89 µM (active), the EC50 [2] is reported as 38.8 µM (active) and the EC50 (Beta-galactosidase) is reported as > 40 µM (inactive). The IC50 [9] was 9.25 µM (active).
With `O=c1oc2ccc3ccccc3c2cc1-c1nc2ccccc2o1` the EC50 [1] was > 300 µM (not active), the EC50 [2] was > 300 µM (inconclusive) and the EC50 [6] was > 99 µM (inactive). The EC50 [7] was > 99 µM (inactive).
